Measurements from patent publication US20190330607A1, “USE OF A SUGAR TOLERANT BETA-GLUCOSIDASE” (Universitè de Liége, priority 2016, published 2019).
Where two headings read alike, the source gives them in different places.

Legend:
Format in all cases: biochemical
[1] = tested on: BglC (beta-glucosidase of Streptomyces scabies 87-22); assay: Relative enzyme activity of BglC with p-NPβG as substrate in presence of tested reagent
Procedure: (§1) Relative enzyme activity was determined using p-nitrophenyl-β-D-glucopyranoside (p-NPβG) as substrate. The reaction mixture (200 μL) containing 50 mM HEPES buffer (pH 7.5), 0.2 μM of purified BglC and the tested reagent was incubated 10 minutes at 25° C. before addition of 1 mM p-NPβG. The reaction was carried out at 25° C. for 2 minutes and stopped by addition of 100 μL of 2 M Na2CO3. All assays were performed under these conditions, unless otherwise indicated. The release of p-nitrophenol (p-NP) was measured at 405 nm with a TECAN Infinite® 200 PRO. The activity assayed in absence of the tested reagent was recorded as 100%.

[2] = Effect of temperature and pH on BglC activity (p-NPβG)
Procedure: as §1
The optimal temperature was determined by measuring the relative enzyme activity of BglC in HEPES 50 mM pH 7.5 at 20, 25, 30, 37 and 42° C. To measure the effect of pH on activity of BglC, relative activity was essayed in the range of pH 5.0-6.5 (50 mM MES buffer), pH 7.0-8.5 (50 mM HEPES buffer) and pH 9-10 (50 mM CHES buffer) at 25° C.

[3] = Kinetic analysis of BglC on cellobiose (glucose released, D-Glucose HK Assay Kit)
Procedure: Kinetic parameters of BglC (Km and kcat) were determined by measuring the glucose released at various cellobiose concentrations in 50 mM HEPES buffer pH 7.5 at 26° C. Reaction time of 7 min was chosen to ensure initial rates of hydrolysis. The glucose released was determined using the D-Glucose HK Assay Kit from Megazyme (Ireland). Data were fitted to the Henri-Michaelis-Menten equation using the GraphPad Prism 5 software.

[4] = Time course of cellobiose hydrolysis by BglC over 7 days, HPLC
Procedure: Glucose and cellobiose analysis was performed by HPLC on an Aminex HPX-87P Column (300×7.8 mm) heated to 80° C. with H2O as eluent (flow rate 0.6 mL/min). Peaks were detected by refractive index detector (Waters 2414).
The tolerance of BglC to glucose was further investigated during prolonged reaction time (7 days). Cellobiose and glucose quantification were performed by HPLC (FIG. 5). 80% of cellobiose was hydrolyzed in 48 h (FIG. 5).

[5] = Substrate specificity of BglC by thin layer chromatography; details: 30° C.
Procedure: The cleavage ability of BglC was tested against different cello-oligosaccharides (cellobiose, cellotriose, cellotetraose, cellopentaose and cellohexaose (Megazyme; Ireland)) or different disaccharides (lactose, saccharose, maltose, threalose and turanose). Reaction mixtures (100 μL) containing 50 mM HEPES buffer pH 7.5, 0.4 μM of purified BglC, 6.25 mM of cello-oligosaccharides or 12.5 mM of disaccharides were incubated at 30° C. 15 μL of each sample were collected at 0, 15, 30 and 60 min than heated at 98° C. for 5 min to stop the reaction. Each sample was spotted onto aluminum-backed Silica gel plate (Sigma). The plates were developed with chloroform-methanol-acetic acid-water solvent (50:50:15:5, vol/vol), air dried, dipped in 5% H2SO4 in ethanol and finally heated over a hot plate until visualization of carbohydrate spots.

[6] = reagent 10 mM, activity without additive = 100%
[7] = reagent 10%, activity without additive = 100%
[8] = Oses (15%), control = 100%, p-NPβG substrate
[9] = substrate cellobiose, 50 mM HEPES pH 7.5, 26° C.

## O[C@H](CS)[C@H](O)CS (racemic) [DTT, dithiothreitol]
[1]; [6]
  Relative initial rate of hydrolysis (%): 116 ± 5%

## O=C(O)CN(CCN(CC(=O)O)CC(=O)O)CC(=O)O [EDTA, ethylene diamine tetraacetic acid]
[1]; [6]
  Relative initial rate of hydrolysis (%): 98 ± 15%

## CCO [Ethanol, ethanol]
[1]; ethanol 0 to 40% tested (FIG. 6)
  ethanol concentration with maximal enhancing activity: 15%
[1]; [7]
  Relative initial rate of hydrolysis (%): 218 ± 6%

## O=C(CO)[C@@H](O)[C@H](O)[C@H](O)CO [Fructose, fructose]
[1]; [8]
  Relative initial rate of hydrolysis (%): 178 ± 9%

## O=C[C@H](O)[C@@H](O)[C@@H](O)[C@H](O)CO [Galaclose, galactose]
[1]; [8]
  Relative initial rate of hydrolysis (%): 255 ± 9%

## CO [Methanol, methanol]
[1]; [7]
  Relative initial rate of hydrolysis (%): 65 ± 6%

## [Cl-].[Na+] [NaCl]
[1]; NaCl 500 mM (FIG. 7)
  activity of BglC kept: around 70%
[1]; NaCl 1 M (FIG. 7)
  activity of BglC: about 50%
[1]; NaCl below 100 mM (FIG. 7)
  effect on capacity of the enzyme to hydrolyze p-NPβG: does not significantly alter

## CCCCCCCCCCCCOS(=O)(=O)[O-].[Na+] [SDS]
[1]; [6]
  Relative initial rate of hydrolysis (%): 64 ± 3%

## OC[C@@H](O)[C@@H](O)[C@H](O)[C@@H](O)CO [Sorbitol, sorbitol]
[1]; [8]
  Relative initial rate of hydrolysis (%): 202 ± 1%

## NC(N)=O [Urea, urea]
[1]; [6]
  Relative initial rate of hydrolysis (%): 103 ± 13%

## O=C[C@H](O)[C@@H](O)[C@H](O)CO [Xylose, xylose]
[1]; [8]
  Relative initial rate of hydrolysis (%): 340 ± 20%
[1]; xylose 0.3 to 1.6 M (FIG. 4)
  maximal activity of BglC: 300-350%

B1: BglC: recombinant His-tagged beta glucosidase of Streptomyces scabies 87-22, SEQ ID NO:2 (protein, listed as Streptomyces scabiei)
chain: MPEPVNPATPVTFPPAFLWGAATSAYQIEGAVREDGRTPSIWDTFSHTPGKTAGGENGDIAVDHYHRYRDDVAMMADLGLNAYRFSVSWSRVQPTGRGPAVQKGLDFYRRLVDELLAKGIKPAVTLYHWDLPQELEDAGGWPERDIVHRFAEYARIMGEALGDRVEQWITLNEPWCTAFLGYGSGVHAPGRTDPVASLRAAHHLNVAHGLGVSALRSAMPARNSIAVSLNSSVVRPITSSPEDRAAARKIDDLANGVFHGPMLHGAYPETLFAATSSLTDWSFVRDGDVATAHQPLDALGLNYYTPALVGAADAGLEGPRADGHGASEHSPWPAADDVLFHQTPGERTEMGWTIDPTGLHELIMRYAREAPGLPMYVTENGAAYDDKMDADGRVHDPERIAYLHGHLRAVRRAIAEGADVRGYYLWSLMDNFEWAYGYGKRFGAVYVDYATLTRTPKSSAHWYGQAAKTGALPPLAPAPA
modifications: His6 tag
[2]; 25° C., pH 5-10 tested
  optimal pH: around 7.5
[2]; 42° C., HEPES 50 mM pH 7.5 (FIG. 3A)
  activity relative to maximal activity: 10%
[3]
  Vmax: 7.3 µmol/min/mg
[3]; [9]
  Km: 770 µM
  Vmax: 7.3 µmol/min/mg
  kcat: 400 min⁻¹
[4]; between glucose and cellobiose, 7 days reaction, glucose only product detected
  transglycosylation activity: no or reduced transglycosylation activity
[4]; in 48 h (FIG. 5)
  cellobiose hydrolyzed: 80%
[5]; 6.25 mM substrate, 0.4 μM BglC, 0-60 min (FIG. 2)
  hydrolysis of cellobiose and cello-oligosaccharides (cellotriose to cellohexaose): able to generate glucose
[5]; 12.5 mM disaccharides
  hydrolysis of other disaccharides (saccharose, maltose, threalose, turanose): did not reveal hydrolysis
[5]; 12.5 mM, compared with cellobiose or cello-oligosaccharides
  hydrolysis of lactose: much less efficiency
